Assay results: patent US12637461B2, “Compounds for the activation of AMPK” (PFIZER INC., priority 2022, dated 2026)

Molecular target: T1, human AMPK α2β2γ3 (Homo sapiens, UniProt O43741+P54646+Q9UGI9)
T1 construct: expressed in transfected cells; host or cells: HEK293AD cells, MaxCyte bulk electroporation
Test: Primary cellular assay: γ3 associated phospho-Thr172 AMPK detection (custom pAMPK Surefire AlphaLISA) in α2β2γ3 bulk transiently transfected HEK293 cells
Assay type: cell-based
Conditions: activation of human AMPK α2β2γ3 (γ3 pThr172 AMPK signal) in transiently transfected HEK293 cells, 20 minutes compound incubation; for Emax: 20 min, read-out: Assay GMean Asy. Max (%); for EC50: geometric mean EC50, read-out: Assay GMean EC50
Summary of the method: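 Transiently co-transfected (α2/β2/γ3 plasmids, electroporation) HEK293AD cells, plated 2 days in low-glucose DMEM+10% FBS, treated 20 min with compounds (11-point half-log dilutions). Lysates read by modified AlphaLISA capturing γ3 with pThr172 antibody detection. % effect relative to 30 μM HPE and DMSO; EC50 and Emax from curve fit.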

[1] = geometric mean of the asymptotic max

T1 sequence (P54646 whole entry): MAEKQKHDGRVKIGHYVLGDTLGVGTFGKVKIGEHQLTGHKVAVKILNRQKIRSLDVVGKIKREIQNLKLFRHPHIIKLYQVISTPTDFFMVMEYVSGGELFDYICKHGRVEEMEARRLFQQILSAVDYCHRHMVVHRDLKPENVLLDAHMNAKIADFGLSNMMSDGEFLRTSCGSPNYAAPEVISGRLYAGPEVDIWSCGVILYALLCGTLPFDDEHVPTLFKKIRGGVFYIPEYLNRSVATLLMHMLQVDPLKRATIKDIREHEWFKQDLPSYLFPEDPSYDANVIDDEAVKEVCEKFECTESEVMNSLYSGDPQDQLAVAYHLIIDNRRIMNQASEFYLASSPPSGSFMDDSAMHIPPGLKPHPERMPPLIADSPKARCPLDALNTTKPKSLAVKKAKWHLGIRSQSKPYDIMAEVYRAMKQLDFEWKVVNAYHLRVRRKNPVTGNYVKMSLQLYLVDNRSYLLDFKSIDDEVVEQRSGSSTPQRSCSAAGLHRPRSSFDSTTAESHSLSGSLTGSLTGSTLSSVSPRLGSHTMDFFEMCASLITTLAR
T1 sequence (O43741 whole entry): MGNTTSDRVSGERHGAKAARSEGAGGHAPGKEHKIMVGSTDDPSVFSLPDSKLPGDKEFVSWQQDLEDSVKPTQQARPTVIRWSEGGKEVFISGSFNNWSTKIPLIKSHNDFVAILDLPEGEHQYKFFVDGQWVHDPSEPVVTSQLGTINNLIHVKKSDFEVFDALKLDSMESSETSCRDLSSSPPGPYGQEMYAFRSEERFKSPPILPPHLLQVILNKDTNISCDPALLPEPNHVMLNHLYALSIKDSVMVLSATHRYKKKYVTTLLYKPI
T1 sequence (Q9UGI9 whole entry): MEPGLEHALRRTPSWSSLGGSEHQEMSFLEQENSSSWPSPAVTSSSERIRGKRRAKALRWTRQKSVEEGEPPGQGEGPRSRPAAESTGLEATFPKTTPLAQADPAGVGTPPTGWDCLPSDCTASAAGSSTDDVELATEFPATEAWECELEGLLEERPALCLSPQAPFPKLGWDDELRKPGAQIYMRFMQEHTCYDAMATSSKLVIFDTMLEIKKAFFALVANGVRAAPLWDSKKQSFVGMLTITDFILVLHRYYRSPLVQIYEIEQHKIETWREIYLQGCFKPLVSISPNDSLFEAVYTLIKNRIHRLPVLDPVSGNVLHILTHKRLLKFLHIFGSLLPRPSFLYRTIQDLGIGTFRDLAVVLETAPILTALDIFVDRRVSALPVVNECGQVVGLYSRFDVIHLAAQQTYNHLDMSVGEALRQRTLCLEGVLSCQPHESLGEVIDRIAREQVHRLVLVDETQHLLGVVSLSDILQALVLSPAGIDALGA

Row | SMILES | Emax [1] [%] | EC50 [nM] | Assay GMean Asy. Max (%) [1] [%]
1 | COCCN(C(=O)CN1CC(Nc2ncc3c(c2F)[C@@](C)(c2cccc(Cl)c2F)CN(c2nn(C)cc2F)C3=O)C1)C1CC1 [compound 75, 2-(3-{[(5R)-5-(3-chloro-2-fluorophenyl)-4-fluoro-7-(4-fluoro-1-methyl-1H-pyrazol-3-yl)-5-methyl-8-oxo-5,6,7,8-tetrahydro-2,7-naphthyridin-3-yl]amino}azetidin-1-yl)-N-cyclopropyl-N-(2-methoxyethyl)acetamide] | 134 | 52.1 | –
2 | Cn1cc(F)c(N2C[C@](C)(c3cccc(Cl)c3F)c3c(cnc(NC4CN(C(=O)CN[C@@H]5CCOC5)C4)c3F)C2=O)n1 [compound 76, (4R)-4-(3-chloro-2-fluorophenyl)-5-fluoro-2-(4-fluoro-1-methyl-1H-pyrazol-3-yl)-4-methyl-6-{[1-{{[(3R)-oxolan-3-yl]amino}acetyl)azetidin-3-yl]amino}-3,4-dihydro-2,7-naphthyridin-1(2H)-one] | 59.3 | 56.6 | –
3 | C[C@]1(c2cccc(Cl)c2F)CN(c2cc(F)c(CO)cc2F)C(=O)c2cnc(NC3CN(C(=O)[C@@H]4C[C@@H]4F)C3)c(F)c21 [compound 77, (4R)-4-(3-chloro-2-fluorophenyl)-2-[2,5-difluoro-4-(hydroxymethyl)phenyl]-5-fluoro-6-({1-[(1S,2S)-2-fluorocyclopropane-1-carbonyl]azetidin-3-yl}amino)-4-methyl-3,4-dihydro-2,7-naphthyridin-1(2H)-one] | 78.2 | 38.4 | –
4 | Cn1cc(F)c(N2C[C@](C)(c3cccc(Cl)c3F)c3c(cnc(NC4CN(C(=O)[C@@H]5C[C@H]5F)C4)c3F)C2=O)n1 [compound 78, (4R)-4-(3-chloro-2-fluorophenyl)-5-fluoro-6-({1-[(1S,2R)-2-fluorocyclopropane-1-carbonyl]azetidin-3-yl}amino)-2-(4-fluoro-1-methyl-1H-pyrazol-3-yl)-4-methyl-3,4-dihydro-2,7-naphthyridin-1(2H)-one] | 80.7 | 62.3 | –
5 | CNCc1ccc(N2CC(C)(c3cccc(Cl)c3F)c3nc(NC4CN(C(=O)C5CC5F)C4)ncc3C2=O)cc1F [compound 80, 8-(3-chloro-2-fluorophenyl)-2-({1-[(1S,2S)-2-fluorocyclopropane-1-carbonyl]azetidin-3-yl}amino)-6-{3-fluoro-4-[(methylamino)methyl]phenyl}-8-methyl-7,8-dihydropyrido[4,3-d]pyrimidin-5(6H)-one, from P11 (ENANT-2)] | 154 | 2500 | –
6 | CC(C)(CO)NC(=O)N1CC(Nc2ncc3c(n2)C(C)(c2cccc(Cl)c2F)CN(c2ncccc2F)C3=O)C1 (stereo not drawn) [compound 87, 3-{[8-(3-chloro-2-fluorophenyl)-6-(3-fluoropyridin-2-yl)-8-methyl-5-oxo-5,6,7,8-tetrahydropyrido[4,3-d]pyrimidin-2-yl]amino}-N-(1-hydroxy-2-methylpropan-2-yl)azetidine-1-carboxamide, from P13 (ENANT-2)] | 175 | 152 | –
7 | CC1(c2cccc(Cl)c2F)CN(c2ncccc2F)C(=O)c2cnc(NC3CN(C(=O)N4CC5CC4C5)C3)nc21 (stereo not drawn) [compound 89, 2-{[1-(2-azabicyclo[2.1.1]hexane-2-carbonyl)azetidin-3-yl]amino}-8-(3-chloro-2-fluorophenyl)-6-(3-fluoropyridin-2-yl)-8-methyl-7,8-dihydropyrido[4,3-d]pyrimidin-5(6H)-one,from P13 (ENANT-2)] | 148 | 152 | –
8 | CN(C)C(=O)CN1CC(Nc2ccc3c(c2F)C(C)(c2cccc(Cl)c2F)CN(c2nn(C)cc2F)C3=O)C1 (stereo not drawn) [compound 90, 2-(3-{[4-(3-chloro-2-fluorophenyl)-5-fluoro-2-(4-fluoro-1-methyl-1H-pyrazol-3-yl)-4-methyl-1-oxo-1,2,3,4-tetrahydroisoquinolin-6-yl]amino}azetidin-1-yl)-N,N-dimethylacetamide, from P18 (ENANT-2)] | 120 | 147 | –
9 | Cn1cc(F)c(N2CC(C)(c3cccc(Cl)c3F)c3c(ccc(NC4CN(CC(=O)N5CCOCC5)C4)c3F)C2=O)n1 (stereo not drawn) [compound 91, 4-(3-chloro-2-fluorophenyl)-5-fluoro-2-(4-fluoro-1-methyl-1H-pyrazol-3-yl)-4-methyl-6-({1-[2-(morpholin-4-yl)-2-oxoethyl]azetidin-3-yl}amino)-3,4-dihydroisoquinolin-1(2H)-one,from P18 (ENANT-2)] | 99.7 | 168 | –
10 | Cn1cc(F)c(N2CC(C)(c3cccc(Cl)c3F)c3c(ccc(NC4CN(CC(=O)N5CCC5)C4)c3F)C2=O)n1 (stereo not drawn) [compound 92, 6-({1-[2-(azetidin-1-yl)-2-oxoethyl]azetidin-3-yl}amino)-4-(3-chloro-2-fluorophenyl)-5-fluoro-2-(4-fluoro-1-methyl-1H-pyrazol-3-yl)-4-methyl-3,4-dihydroisoquinolin-1(2H)-one, from P18 (ENANT-2)] | – | 58.9 | 109
11 | C[C@]1(c2cccc(Cl)c2F)CN(c2cc(N)ccn2)C(=O)c2cnc(NC3CN(C(=O)[C@@H]4C[C@@H]4F)C3)c(F)c21 [compound 93, (4R)-2-(4-aminopyridin-2-yl)-4-(3-chloro-2-fluorophenyl)-5-fluoro-6-({1-[(1S,2S)-2-fluorocyclopropane-1-carbonyl]azetidin-3-yl}amino)-4-methyl-3,4-dihydro-2,7-naphthyridin-1(2H)-one] | 57.5 | 65.3 | –
12 | Cn1cnc(N2C[C@](C)(c3cccc(Cl)c3F)c3c(cnc(NC4CN(C(=O)[C@@H]5C[C@@H]5F)C4)c3F)C2=O)c1 [compound 94, (4R)-4-(3-chloro-2-fluorophenyl)-5-fluoro-6-({1-[(1S,2S)-2-fluorocyclopropane-1-carbonyl]azetidin-3-yl}amino)-4-methyl-2-(1-methyl-1H-imidazol-4-yl)-3,4-dihydro-2,7-naphthyridin-1(2H)-one] | 50.3 | 212 | –
13 | Cn1cc(F)c(N2C[C@](C)(c3cccc(Cl)c3F)c3c(cnc(NC4CN(C(=O)[C@H]5C[C@H]5F)C4)c3F)C2=O)n1 [compound 99, (4R)-4-(3-chloro-2-fluorophenyl)-5-fluoro-6-({1-[(1R,2R)-2-fluorocyclopropane-1-carbonyl]azetidin-3-yl}amino)-2-(4-fluoro-1-methyl-1H-pyrazol-3-yl)-4-methyl-3,4-dihydro-2,7-naphthyridin-1(2H)-one] | 49.7 | 70.2 | –
14 | C[C@]1(c2cccc(Cl)c2F)CN(c2ncccc2F)C(=O)c2cnc(NC3CN(C(=O)N4CCN5CC(F)(F)C[C@@H]5C4)C3)c(F)c21 [compound 100, (4R)-4-(3-chloro-2-fluorophenyl)-6-({1-[(8aR)-7,7-difluorohexahydropyrrolo[1,2-a]pyrazine-2(1H)-carbonyl]azetidin-3-yl}amino)-5-fluoro-2-(3-fluoropyridin-2-yl)-4-methyl-3,4-dihydro-2,7-naphthyridin-1(2H)-one] | 22.8 | 11.6 | –
15 | Cn1cc(F)c(N2CC(C)(c3ccc(F)c(Cl)c3F)c3c(cnc(NC4CN(C(=O)C(C)(C)O)C4)c3F)C2=O)n1 (stereo not drawn) [compound 101, 4-(3-chloro-2,4-difluorophenyl)-5-fluoro-2-(4-fluoro-1-methyl-1H-pyrazol-3-yl)-6-{[1-(2-hydroxy-2-methylpropanoyl)azetidin-3-yl]amino}-4-methyl-3,4-dihydro-2,7-naphthyridin-1(2H)-one, from P3 (ENANT-2)] | 108 | 135 | –
16 | Cc1c(F)ccc(C2(C)CN(c3ncccc3F)C(=O)c3cnc(NC4CN(C(=O)C5(O)CC5)C4)c(F)c32)c1F (stereo not drawn) [compound 106, 4-(2,4-difluoro-3-methylphenyl)-5-fluoro-2-(3-fluoropyridin-2-yl)-6-{[1-(1-hydroxycyclopropane-1-carbonyl)azetidin-3-yl]amino}-4-methyl-3,4-dihydro-2,7-naphthyridin-1(2H)-one, from P5 (ENANT-2)] | 70.5 | 33.9 | –
17 | CC1(c2cccc(F)c2F)CN(c2ncccc2F)C(=O)c2cnc(NC3CN(C(=O)C4(O)CC4)C3)c(F)c21 (stereo not drawn) [compound 108, 4-(2,3-difluorophenyl)-5-fluoro-2-(3-fluoropyridin-2-yl)-6-{[1-(1-hydroxycyclopropane-1-carbonyl)azetidin-3-yl]amino}-4-methyl-3,4-dihydro-2,7-naphthyridin-1(2H)-one, from P7 (ENANT-2)] | 76.8 | 123 | –
18 | CN(C)C(=O)CN1CCC(Nc2ncc3c(c2F)C(C)(c2cccc(Cl)c2F)CN(c2nn(C)cc2F)C3=O)C1 [compound 110, 2-[(3R)-3-{[5-(3-chloro-2-fluorophenyl)-4-fluoro-7-(4-fluoro-1-methyl-1H-pyrazol-3-yl)-5-methyl-8-oxo-5,6,7,8-tetrahydro-2,7-naphthyridin-3-yl]amino}pyrrolidin-1-yl]-N,N-dimethylacetamide, from P9 (DIAST-2)] | 63.2 | 266 | –
